Experimental data reported in paper PMC4929166, “Pharmacological evaluation of synthetic cannabinoids identified as constituents of spice” (Forensic Toxicology, 2016).

How the values were obtained:
human GPR55 = molecular target: T1, human GPR55 (Homo sapiens, UniProt Q9Y2T6); test: β-Arrestin recruitment assay (PathHunter) at GPR55; type: cell-based; settings: for IC50: Human GPR55 IC50, β-arrestin assay, antagonist mode; for Human GPR55 % activation / Human GPR55 % inhibition: β-arrestin assay; for Human GPR55 % activation: percent in brackets beside EC50 >10 µM; for Human GPR55 % inhibition: percent in brackets beside IC50
T1 construct: β-galactosidase enzyme fragment (PathHunter complementation tag)
Method: (§1) Recruitment of β-arrestin to the respective receptor was detected by using β-galactosidase enzyme fragment complementation technology (β-arrestin PathHunter™ assay, DiscoverX, Fremont, CA, USA) as previously described. Data were obtained from three independent experiments, performed in duplicates. Data were analyzed using Graph Pad Prism Version 4.02 (San Diego, CA, USA).

human GPR18 = molecular target: T2, human GPR18 (Homo sapiens, UniProt Q14330); test: β-Arrestin recruitment assay (PathHunter) at GPR18; type: cell-based; settings: for Human GPR18 % activation / Human GPR18 % inhibition: β-arrestin assay; for Human GPR18 % activation: percent in brackets beside EC50 >10 µM; for Human GPR18 % inhibition: percent in brackets beside IC50
T2 construct: β-galactosidase enzyme fragment (PathHunter complementation tag)
T2 sequence (Q14330 1-331): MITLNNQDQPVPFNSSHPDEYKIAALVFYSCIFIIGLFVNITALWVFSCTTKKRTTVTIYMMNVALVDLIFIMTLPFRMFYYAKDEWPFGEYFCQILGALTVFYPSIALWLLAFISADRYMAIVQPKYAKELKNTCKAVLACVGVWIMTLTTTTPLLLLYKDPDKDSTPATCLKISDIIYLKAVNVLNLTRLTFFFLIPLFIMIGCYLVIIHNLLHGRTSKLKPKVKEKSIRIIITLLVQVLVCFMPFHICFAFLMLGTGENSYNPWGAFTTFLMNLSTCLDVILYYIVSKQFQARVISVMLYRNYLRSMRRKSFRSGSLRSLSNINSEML
Method: as §1

CB1 receptor = CB1 receptor (Homo sapiens, UniProt P21554); test: biochemical; type: binding; parameters: expressed in transfected cells; host or cells: CHO cells (membrane preparation); settings: for CB1 selectivity Ki CB2/KiCB1: Table S1, selectivity index from Ki values; for Ki: versus 0.1 nM [3H]CP55,940, CHO cell membranes, mean ± SEM of three to five experiments, read-out: Ki ± SEM Human CB1; for fold higher Ki value at CB1 receptors after introduction of a quinoline: amide-linked group A, compared with naphthyl analogue (8 vs 10; 9 vs 11)
CB2 receptor = CB2 receptor (Homo sapiens, UniProt P34972); test: biochemical; type: binding; parameters: expressed in transfected cells; host or cells: CHO cells (membrane preparation); settings: for Ki: versus 0.1 nM [3H]CP55,940, CHO cell membranes, mean ± SEM of three to five experiments, read-out: Ki ± SEM Human CB2; for CB2 selectivity Ki CB1/KiCB2: Table S1, selectivity index from Ki values
CB2 receptor, sequence (P34972 whole entry): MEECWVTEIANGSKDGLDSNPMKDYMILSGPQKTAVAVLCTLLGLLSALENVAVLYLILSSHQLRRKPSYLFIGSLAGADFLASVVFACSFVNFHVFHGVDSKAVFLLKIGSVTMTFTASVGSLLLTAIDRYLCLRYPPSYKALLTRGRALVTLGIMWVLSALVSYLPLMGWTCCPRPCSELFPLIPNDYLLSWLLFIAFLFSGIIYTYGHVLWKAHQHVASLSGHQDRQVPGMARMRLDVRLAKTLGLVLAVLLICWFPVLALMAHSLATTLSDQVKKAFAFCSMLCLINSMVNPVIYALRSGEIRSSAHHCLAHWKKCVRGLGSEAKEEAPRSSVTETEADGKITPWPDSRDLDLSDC

CB1 receptor, sequence (P21554 whole entry): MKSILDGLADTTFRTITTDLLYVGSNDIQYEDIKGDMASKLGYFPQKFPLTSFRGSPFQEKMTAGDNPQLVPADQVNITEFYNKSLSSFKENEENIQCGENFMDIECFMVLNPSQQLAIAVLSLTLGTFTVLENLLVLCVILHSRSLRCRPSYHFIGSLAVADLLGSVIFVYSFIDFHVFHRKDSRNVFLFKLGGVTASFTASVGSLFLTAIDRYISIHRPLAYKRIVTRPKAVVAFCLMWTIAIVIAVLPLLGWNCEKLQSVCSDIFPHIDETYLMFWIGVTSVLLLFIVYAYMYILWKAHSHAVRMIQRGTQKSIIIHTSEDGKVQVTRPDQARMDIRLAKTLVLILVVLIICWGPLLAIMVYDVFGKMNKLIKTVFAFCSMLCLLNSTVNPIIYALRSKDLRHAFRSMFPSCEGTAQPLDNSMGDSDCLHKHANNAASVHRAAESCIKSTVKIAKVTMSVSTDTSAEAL
T1 sequence (Q9Y2T6 whole entry, the tested form may be a part): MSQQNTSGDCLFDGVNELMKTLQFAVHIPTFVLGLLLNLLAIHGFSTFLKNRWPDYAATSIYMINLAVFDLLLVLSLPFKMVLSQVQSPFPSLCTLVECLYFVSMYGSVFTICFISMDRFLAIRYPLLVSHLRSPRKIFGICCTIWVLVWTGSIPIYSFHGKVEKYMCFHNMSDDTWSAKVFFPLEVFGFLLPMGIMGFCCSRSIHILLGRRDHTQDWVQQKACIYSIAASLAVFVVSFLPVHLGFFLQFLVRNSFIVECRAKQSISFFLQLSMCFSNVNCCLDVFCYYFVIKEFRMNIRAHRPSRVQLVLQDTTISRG

Row | SMILES | EC50 (human GPR55) [µM] | IC50 (human GPR55) [µM] | Human GPR55 % activation (human GPR55) [%] | Human GPR55 % inhibition (human GPR55) | EC50 (human GPR18) [µM] | IC50 (human GPR18) [µM] | Human GPR18 % activation (human GPR18) [%] | Human GPR18 % inhibition (human GPR18) | CB1 selectivity Ki CB2/KiCB1 (CB1 receptor) | Ki (CB1 receptor) [µM] | Ki (CB2 receptor) [µM] | CB2 selectivity Ki CB1/KiCB2 (CB2 receptor) | fold higher Ki value at CB1 receptors after introduction of a quinoline (CB1 receptor) [fold]
1 | O=C(Nc1cccc2ccccc12)c1nn(CCCCCF)c2ccccc12 [Compound 9, 5F-MN-18] | > 10 | > 10 | 38 | −5% | > 10 | > 10 | −26 | 23% | 1.5 | 0.00165 ± 0.00026 | 0.0025 ± 0.00086 | – | –
2 | O=C(Nc1cccc2ccccc12)c1cn(CCCCCF)c2ccccc12 [Compound 5, 5F-NNEI] | > 10 | > 10 | 25 | −8% | > 10 | > 10 | −3 | −17% | 3.6 | 0.00369 ± 0.00197 | 0.0134 ± 0.0016 | – | –
3 | O=C(Nc1cccc2ccccc12)c1cn(CCCCCCl)c2ccccc12 [Compound 6, 5Cl-NNEI] | > 10 | > 10 | 28 | 5% | > 10 | > 10 | 1 | −13% | 3.2 | 0.0102 ± 0.0022 | 0.0328 ± 0.0108 | – | –
4 | O=C(Oc1cccc2ccccc12)c1cn(Cc2ccc(F)cc2)c2ccccc12 [Compound 20, FDU-PB-22] | > 10 | > 10 | 11 | 30% | > 10 | > 10 | 30 | −4% | 2.0 | 0.00119 ± 0.00039 | 0.00243 ± 0.00092 | – | –
5 | O=C(Oc1cccc2cccnc12)c1cn(Cc2ccc(F)cc2)c2ccccc12 [Compound 26, FUB-PB-22] | > 10 | > 10 | 5 | 24% | > 10 | > 10 | 15 | 8% | 1.2 | 0.000386 ± 0.000117 | 0.000478 ± 0.000124 | – | –
6 | O=C(c1cn(CCCCCF)c2ccccc12)C12CC3CC(CC(C3)C1)C2 [Compound 36, 5F-AB001] | > 10 | ~10 | 19 | 48% | > 10 | ~10 | −6 | – | – | 0.0123 ± 0.003 | 0.00147 ± 0.00103 | 8.4 | –
7 | O=C(Oc1cccc2cccnc12)c1cn(CCCCCF)c2ccccc12 [Compound 25, 5F-PB-22] | > 10 | > 10 | 5 | -10% | > 10 | > 10 | −5 | −5% | 1.4 | 0.000468 ± 6.9e-05 | 0.000633 ± 5.8e-05 | – | –
8 | O=C(Nc1cccc2cccnc12)c1nn(CCCCCF)c2ccccc12 [Compound 11, 5F-THJ] | > 10 | > 10 | 28 | – | > 10 | > 10 | −17 | 44% | – | 0.0226 ± 0.0075 | 0.00275 ± 0.00099 | 8.2 | 27
9 | O=C(NC12CC3CC(CC(C3)C1)C2)c1nn(Cc2ccc(F)cc2)c2ccccc12 [Compound 18, N-((3s,5s,7s)-Adamantan-1-yl)-1-(4-fluorobenzyl)-1H-indazole-3-carboxamide] | > 10 | – | −11 | (83 %) | > 10 | – | −27 | (69 %) | – | 0.00106 ± 0.00029 | 0.000174 ± 1.8e-05 | 6.1 | –
10 | COc1ccccc1CC(=O)c1cn(CCC2CCCCC2)c2ccccc12 [Compound 34, RCS-8] | – | – | – | – | – | – | – | – | – | 0.0813 ± 0.0158 | 0.0146 ± 0.0061 | 5.6 | –
11 | CCCC(F)Cn1cc(C(=O)C2C(C)(C)C2(C)C)c2ccccc21 (stereo not drawn) [Compound 39, XLR-11-2-fluoropentyl-isomer] | > 10 | 5.69 ± 1.95 | −8 | – | > 10 | > 10 | 24 | 29% | – | 0.0595 ± 0.0169 | 0.00183 ± 0.00047 | 32.5 | –
12 | CC1(C)C(C(=O)c2cn(Cc3ccc(F)cc3)c3ccccc23)C1(C)C [Compound 42, FUB-144] | > 10 | ~10 | −3 | 62% | > 10 | ~10 | −12 | 74% | – | 0.014 ± 0.0027 | 0.000846 ± 0.000209 | 16.5 | –
13 | CCCCCn1nc(C(=O)Nc2cccc3cccnc23)c2ccccc21 [Compound 10, THJ] | > 10 | > 10 | 11 | 50% | > 10 | > 10 | 4 | 30% | – | 0.103 ± 0.025 | 0.0127 ± 0.0041 | 8.1 | 14
14 | O=C(c1cccc2ccccc12)c1nn(CCCCCF)c2ccccc12 [Compound 29, THJ2201] | > 10 | > 10 | −1 | 47% | > 10 | > 10 | 18 | 21% | 1.0 | 0.00134 ± 0.00054 | 0.00132 ± 0.00039 | 1.0 | –
15 | Cc1ccc(C(=O)c2cn(CCCC(C)F)c3ccccc23)c2ccccc12 (stereo not drawn) [Compound 32, MAM-2201-4-fluoropentyl-isomer] | > 10 | 3.07 ± 1.48 | −41 | – | – | – | – | – | – | 0.00323 ± 0.00156 | 0.000808 ± 5.7e-05 | 4.0 | –
16 | Cc1ccc(C(=O)c2cn(CCCCCF)c3ccccc23)c2ccccc12 [Compound 30, MAM-2201] | – | – | – | – | – | – | – | – | – | 0.00158 ± 0.00076 | 0.000582 ± 0.000123 | 2.7 | –
17 | CCCCCn1cc(C(=O)c2ccccc2OC)c2ccccc21 [Compound 33, RCS-4] | – | – | – | – | – | – | – | – | – | 0.0266 ± 0.0066 | 0.00286 ± 0.00039 | 9.3 | –
